US6399570B1, “Antimicrobial/endotoxin neutralizing polypeptide” (priority 1999, dated 2002)

What was measured:
E. coli 0111 [1] = assay: Galactosamine-sensitized, leukopenic mouse model of bacteremic lethality; type: in vivo, CF-1 mice; conditions: 100 μM, i.p., simultaneous with lethal E. coli dose; 10% in untreated animals
Protocol: The ultimate protective potential of the LF 6 kDa polypeptide in a host-defense against bacterial infection was determined by testing in an acute, galactosamine-sensitized, leukopenic mouse model system (Bucklin et al., J. Infect. Dis. 174: 1249-1254 (1996)). In this model, mice were made leukopenic to suppress their endogenous host defense systems and then sensitized to the effects of Gram-negative endotoxins by galactosamine treatment while injecting a lethal intraperitoneal dose of E. coli. […] This rescue from lethality dramatically illustrates the protective potential of the polypeptide in vivo and is likely due to its combined antimicrobial and anti-endotoxin properties.
Generation of galactosamine-sensitized, leukopenic mouse model system. CF-1 mice were rendered immunocompromised by cyclophosphamide treatment three days prior to galactosamine-sensitizing them to the lethal effects of injection with an LD90 dose of E. coli 0111 (Bucklin et al., J. Infect. Dis. 174: 1249-1254 (1996)). Under these conditions, circulating leukocytes were reduced by 85% and the LD90 was determined to be 5×10^3 CFU E. coli.

[2] = system: lipid A from E. coli 0113; assay: LAL assay, neutralization of lipid A endotoxin activity (FIG. 6); type: biochemical; conditions: lipid A 30 ng/ml
Protocol: The lipid A region of the LPS molecule is primarily responsible for the inflammatory and toxic effects of LPS. When LPS is released from the microbe, the lipid A portion may become more accessible. The following assays were performed to determine the potential of various amino-terminal LF polypeptides to neutralize the endotoxic activity of the lipid A portion of LPS. LF, the 6 kDa fragment of LF, LF-33, LF-27, and polymyxin B were each tested for the ability to neutralize the endotoxin activity of lipid A from E. coli 0113 (30 ng/ml), using a LAL assay. […] The endotoxin activity of the smaller fragments of LF indicate that endotoxin-neutralizing activity of these small polypeptides is masked when in the context of the intact LF molecule.

E. coli 0111 [3] = assay: Potentiation of Rifampicin by LF polypeptides; conditions: 5 μM polypeptide + 0.9 μg/ml rifampicin, 6 hr
Protocol: E. coli cultures were exposed to sub-optimal doses of Rifampicin in the presence or absence of sub-optimal doses of the indicated polypeptides (FIG. 5), and were incubated for 6 hours, at which point CFU were determined.
E. coli 0111 were grown overnight as described above. Overnight cultures were then diluted 1:16,000 in 1% BP/PBS containing 0.9 μg/ml Rifampicin (Sigma-Aldrich Fine chemicals) and 5 μM LF polypeptides as indicated. Control cultures were those not exposed to any polypeptide. The diluted cultures were then incubated at 37° C. for 6 hr with aeration by shaking. The number of viable bacteria were then determined by dilution plating samples from each group and subsequently counting colony forming units (CFU). All values represent the average of duplicate independent experiments.

E. coli 0111 [4] = assay: Time course of E. coli growth in the presence of LF polypeptides; type: cell-based; conditions: 50 μM, seven hour time course, OD 600 nm
Protocol: To investigate whether regions of the molecule involved in GAG binding activity of the 6 kDa LF polypeptide (generated from pepsin digestion) are also involved in the antimicrobial activity of the 6 kDa polypeptide of the present invention, polypeptides of various lengths corresponding to the N-terminal amino acid sequence of LF were tested for the ability to inhibit the growth of E. coli 0111. Overnight cultures were grown over a seven hour time course in the presence of 50 μM of either LF, a 33-mer corresponding to amino acids 1-33 of LF, a 26-mer corresponding to […] of LF, a 27-mer corresponding to amino acids 1-27 of LF. […] This is consistent with LF and the 33-mer inhibiting bacterial growth via different mechanisms. […] The failure of the 26-mer and the 27-mer to inhibit culture growth emphasizes the importance of retaining both clusters of basic residues, at the termini of the 33-mer, for the antimicrobial functionality of polypeptides derived from the N-terminal LF sequence.
Time course of E. coli growth in the presence of LF polypeptides. E. coli cells, clinical isolate strain 0111, were obtained from ATCC. […] Culture growth was monitored spectrophotometrically by measuring optical density at 600 nm at each indicated time point.

S. abortus LPS = assay: Limulus ELISA, ENC50 against S. abortus LPS; type: biochemical, Salmonella abortus equi; conditions: endotoxin 200 EU/ml; mean +/− SD
Protocol: The peptide-mediated inhibition of endotoxin-induced Limulus amebocyte lysate (LAL) coagulation was measured with a sensitive LAL assay (Zhang et al., J. Clin. Microbiol. 32: 416-422 (1994)). Limulus ELISA is an endotoxin assay based on activation of the LAL coagulation by endotoxin and detection of the generated peptide-C immunoreactivity with an ELISA using a monoclonal antibody to the polypeptide. Endotoxin was defined to be neutralized when it lost its ability to activate the LAL enzymes. The 50% endotoxin-neutralizing concentration (ENC50) reflects the potency of an anti-endotoxin agent; a low ENC50 indicates high potency. Table 2 lists the determined ENC50 value of each anti-endotoxin agent against lipid A and four different types of LPS. The potency of each anti-endotoxin agent varied depending on the type of endotoxin. […] The only difference between the sequence of LF-33 and LF-27 is that LF-27 lacks the first six residues (GRRRRS) at the N-terminus of LF-33. Remarkably, this deletion led to dramatic loss of the endotoxin-neutralizing capacity of the polypeptide in this assay. Binding of serum proteins to endotoxin neutralizes the endotoxin activity in this assay by preventing endotoxin from activating LAL (Emancipator et al., Infect. Immun. 60: 596-601 (1992)).
LPS. […] LPS (purity >99%) from Neisseria meningitidis was prepared from the group B strain #6275 and its potency was 25 EU/ng. […] The potency of the above endotoxin was determined with the Limulus enzyme-linked immunosorbent assay (ELISA, 43) in comparison with US Pharmacopeia reference standard endotoxin EC-5.
Briefly, 25 μl endotoxin solution (200 EU/ml) was mixed with an equal volume of test materials in a series of two-fold dilution in 0.15 M NaCl in a sterile 96-well tissue culture plate (Nunc A/S, Roskilde, Denmark), and incubated at 37° C. for 1 h in a dry-air incubator. […] The endotoxin activity was then quantified with the use of Limulus ELISA (Zhang et al., J. Clin. Microbiol. 32: 416-422 (1994)). […] The high sensitivity of the assay allowed for very low levels of the endotoxin activity to be detected. […]

Compound | survival rate of infected animals (E. coli 0111 [1]) [%] | lipid A neutralizing activity [2] | effect on the antimicrobial activity of rifampicin (viable bacteria) (E. coli 0111 [3]) | growth of E. coli 0111 cultures (E. coli 0111 [4]) | ENC50 against S. abortus LPS (S. abortus LPS) | IC50 (S. abortus LPS) [µM]
6 kDa polypeptide: 6 kDa fragment produced by cathepsin D digestion of human LF, amino acids 1-49 of SEQ ID NO: 2 (GRRRRSVQWCAVSQPEATKCFQWQRNMRKVRGPPVSCIKRDSPIQCIQA; listed as Homo sapiens) | 70 | neutralized lipid A | more than three orders of magnitude |  |  | 
CSCC[C@H](NC(=O)[C@H](CC(N)=O)NC(=O)[C@H](CCCNC(=N)N)NC(=O)[C@H](CCC(N)=O)NC(=O)[C@H](Cc1c[nH]c2ccccc12)NC(=O)[C@H](CCC(N)=O)NC(=O)[C@H](Cc1ccccc1)NC(=O)[C@H](CS)NC(=O)[C@H](CCCCN)NC(=O)[C@@H](NC(=O)[C@H](C)NC(=O)[C@H](CCC(=O)O)NC(=O)[C@@H]1CCCN1C(=O)[C@H](CCC(N)=O)NC(=O)[C@H](CO)NC(=O)[C@@H](NC(=O)[C@H](C)NC(=O)[C@H](CS)NC(=O)[C@H](Cc1c[nH]c2ccccc12)NC(=O)[C@H](CCC(N)=O)NC(=O)[C@@H](N)C(C)C)C(C)C)[C@@H](C)O)C(=O)N[C@@H](CCCNC(=N)N)C(=O)N[C@@H](CCCCN)C(=O)N[C@H](C(=O)N[C@@H](CCCNC(=N)N)C(=O)NCC(=O)N1CCC[C@H]1C(=O)O)C(C)C [LF-27] |  | neutralized lipid A | no significant effect | failure | no detectable activity | > 300
